According to PubChem BioAssay (NCI):
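Briefly, cells in 96-well plates were exposed to five compound concentrations for 48 h, and endpoints were estimated by linear interpolation. Here, GI50 denotes the concentration required for 50% inhibition of growth. TGI: total growth inhibition.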

Tests used:
Assay in all cases: growth of human tumour cells (NCI), 48 h
[1] = tested on: OVCAR-3 ovarian
[2] = tested on: 786-0 renal
[3] = tested on: SNB-19 CNS
[4] = tested on: CCRF-CEM leukemia
[5] = tested on: OVCAR-8 ovarian
[6] = tested on: MALME-3M melanoma
[7] = tested on: NCI-H226 lung
[8] = tested on: OVCAR-5 ovarian
[9] = tested on: NCI-H460 lung
[10] = tested on: UO-31 renal

SMILES	TGI [1] [µM]	TGI [2] [µM]	TGI [3] [µM]	TGI [4] [µM]	TGI [5] [µM]	TGI [6] [µM]	TGI [7] [µM]	TGI [8] [µM]	TGI [9] [µM]	GI50 [1] [µM]	GI50 [2] [µM]	GI50 [3] [µM]	GI50 [10] [µM]	TGI [10] [µM]	GI50 [5] [µM]	GI50 [6] [µM]	GI50 [7] [µM]	GI50 [8] [µM]	GI50 [9] [nM]	GI50 [4] [nM]
CNC(=O)OCC1C2=C(C(=O)C(C)=C(N)C2=O)N2CC3C(N3C)C12OC (configuration not stated)	> 100	21.2	> 100	> 100	> 100	18.5	> 100	> 100	10											
CC1(C)OC(=O)C=C([O-])O1.CC1(C)OC(=O)C=C([O-])O1.CC[O-].CC[O-].[Ti+4]	> 100	> 100	> 100		> 100	> 100	> 100	> 100	> 100	> 100	> 100	> 100	> 100	> 100	> 100	> 100	> 100	> 100	> 100000	
O=C1C=CC(CC(=O)c2ccc3ccccc3c2)O1 (configuration not stated)	41.6	39.1	76.8	63.4	32.8	> 100		41.5	55.2					39.2						
O=C1NCCS(=O)(=O)/C1=C\C=C\c1cccc(C(F)(F)F)c1	11.4	7.67	10.7	10.7	16.8	17.2	7.65		7.68	2.85	2.64	2.62	1.76	3.79	3.46	4.02	2.75		2730	2130
Cc1cccc(Nc2cnc(N)nc2N)c1	> 100	> 100	> 100	> 100	> 100	> 100	> 100							> 100						
CC12Oc3ccc4ccccc4c3CC1Cc1c(ccc3ccccc13)O2 (configuration not stated)		> 100	> 100		> 100	17	> 100	> 100	> 100					> 100						
CCc1nc(N)nc(N)c1-c1ccc(Cl)c(N=CN(C)C)c1	> 100	> 100	> 89.3	97.6	> 100		> 100	> 100	> 95.2					> 100						
O=C(Nc1ccc(Cl)c(Cl)c1)OCCN1c2ccccc2Sc2ccccc21	> 10	> 10	> 10	> 10	> 10	> 10		> 10												
CC1=C(/C=C/C(C)=C/C=C/C(C)=C/CO)C(C)(C)CCC1	28.4	34.2	69.4	46.4		29.1	50.9	61.2	> 100					31.8						
C=CS(=O)(=O)CCN1CC1	> 10	> 10		> 10	> 10	> 10		> 10												
CC(CCCOC(c1ccccc1)(c1ccccc1)c1ccccc1)OC(=O)Nc1ccccc1 (configuration not stated)	26.9	29.9		33.1	27.1	29.6	25.6	26.8	24.8					23.7						
COC(=O)CCC(=O)NC1C2CC3CC(C2)CC1C3 (configuration not stated)	> 100	> 100	> 100	> 100	> 100	> 100		> 100	> 100					> 100						
O=C1OC(c2ccccc2)=N/C1=C\c1cccc(F)c1	> 100	> 100	> 100	72.7	64.9		92.8	> 100	> 100					> 100						
O=[N+]([O-])c1ccc(Cl)cc1C1SCc2nc3ccccc3n21 (configuration not stated)	> 100	> 100	> 100	> 100	> 100	> 100			23.4					> 100						
COc1ccc(Nc2c3ccccc3nc3[nH]c4ccccc4c23)cc1	> 50	49.2	> 50		> 50		> 50	> 50	> 50	19.4	11.4	25.5	38.9	> 50	30.2		7.65	26.7	2280	
CN(C)C(=S)/N=c1\ss/c(=N\S(=O)(=O)c2ccccc2)n1N(C)C	> 100	> 100	> 100	> 100	> 100	> 100	> 100		> 100					> 100						
Cc1cc2c(cc1N)C(C)C1(CCC(=O)N2Cc2ccccc2)OCCO1 (configuration not stated)	> 100	> 100	> 100		> 100	> 100	> 100	> 100	> 100					> 100						
O=C(Nc1ccn(CCI)c(=O)n1)c1ccccc1	> 100	> 100		> 100	> 100	> 100	> 100	> 100	> 100					> 100						
O=C(O)C1=C(C(=O)Nc2ccc(NC(=O)C3=C(C(=O)O)C4C=CC3C4)cc2)C2C=CC1C2	> 100	> 100	> 100	> 100	> 100	> 100		> 100	> 100					> 100						
CN(/N=N/c1nc(OCc2ccccc2)c2[nH]cnc2n1)C(=O)Oc1ccc([N+](=O)[O-])cc1	24.4	23.7	27.9		26.3			> 50	31.3	9.49	8.76	9.6	6.58	13.9	9.81			11.5	6710	
O=C1CC(c2ccc(Cl)cc2)Oc2ccccc21 (configuration not stated)		32.4	77.7	37.4	> 100		33.6		45.3					> 100						
COC1OC2COC(c3ccccc3)OC2C(O)C1Br (configuration not stated)	> 100	> 100	> 100	> 100	> 100	> 100		> 100	> 100											
